A short description of the data set: Solubility of FT4 compounds and polymer in organic solvents. Format: physicochemical. As to conditions: for solubility in diethyl ether / solubility in hexane: room temperature. The text has this: Table 2 provides solubility properties and a solubility comparison of di-Br compound 7 and di-tin compound 8.

Each structure is given as a SMILES string.

Two molecules from US8278346B2, “Di-tin fused thiophene compounds and polymers and methods of making” (Corning Incorporated, priority 2010, dated 2012) can be followed below.

In the case of `CCCCCCCCCCCCCCCCCc1c(Br)sc2c1sc1c3sc(Br)c(CCCCCCCCCCCCCCCCC)c3sc21` [compound 7], the “solubility in diethyl ether” value was “practically insoluble” and the solubility in hexane result is “practically insoluble”. Further, the “solubility in direct comparisons to compound 8” value (Table 2 solvents) is “essentially insoluble or only partially soluble”.

`CCCCCCCCCCCCCCCCCc1[c]([Sn]([CH3])([CH3])[CH3])sc2c1sc1c3s[c]([Sn]([CH3])([CH3])[CH3])c(CCCCCCCCCCCCCCCCC)c3sc21` [compound 8]: the “solubility in diethyl ether” value is “freely soluble” and the solubility in hexane entry was “freely soluble”. Moreover, the “solubility in hexane, toluene, CH2Cl2, or mixtures thereof” value (compared to the corresponding di-bromo compound Br-DC17FT4-Br) was “excellent solubility”.
